Experimental data taken from PubChem BioAssay (NCI).
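GI50: concentration for 50% inhibition of growth. At the TGI there is no net growth.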

How the values were obtained:
Experiment in all cases: DTP human tumour cell line panel, 384-well format
K-562 leukemia = system: K-562 leukemia
NCI-H322M lung = system: NCI-H322M lung
SF-268 CNS = system: SF-268 CNS
EKVX NSCLC = system: EKVX NSCLC
MDA-MB-468 breast = system: MDA-MB-468 breast
HOP-92 NSCLC = system: HOP-92 NSCLC
SN12C renal = system: SN12C renal
OVCAR-4 ovarian = system: OVCAR-4 ovarian
MOLT-4 leukemia = system: MOLT-4 leukemia
HL-60(TB) leukemia = system: HL-60(TB) leukemia
PC-3 prostate = system: PC-3 prostate
T-47D breast = system: T-47D breast
U251 glioblastoma = system: U251 glioblastoma
UACC-257 melanoma = system: UACC-257 melanoma
UACC-62 melanoma = system: UACC-62 melanoma
MALME-3M melanoma = system: MALME-3M melanoma
RPMI-8226 leukemia = system: RPMI-8226 leukemia
COLO 205 colon = system: COLO 205 colon
UO-31 renal = system: UO-31 renal
TK-10 renal = system: TK-10 renal
HOP-62 NSCLC = system: HOP-62 NSCLC
NCI/ADR-RES ovarian = system: NCI/ADR-RES ovarian
KM12 colon = system: KM12 colon
A498 renal = system: A498 renal
LOX IMVI melanoma = system: LOX IMVI melanoma
SK-MEL-28 melanoma = system: SK-MEL-28 melanoma
DU-145 prostate = system: DU-145 prostate
M14 melanoma = system: M14 melanoma
SK-MEL-5 melanoma = system: SK-MEL-5 melanoma
CAKI-1 renal = system: CAKI-1 renal
HCT-116 colon = system: HCT-116 colon
OVCAR-3 ovarian = system: OVCAR-3 ovarian
OVCAR-8 ovarian = system: OVCAR-8 ovarian
MDA-MB-231 breast = system: MDA-MB-231 breast
IGROV1 ovarian = system: IGROV1 ovarian
NCI-H460 NSCLC = system: NCI-H460 NSCLC
SNB-19 CNS = system: SNB-19 CNS
SK-MEL-2 melanoma = system: SK-MEL-2 melanoma
NCI-H226 lung = system: NCI-H226 lung
MDA-MB-435 melanoma = system: MDA-MB-435 melanoma
HCC-2998 colon = system: HCC-2998 colon
SK-OV-3 ovarian = system: SK-OV-3 ovarian
ACHN renal = system: ACHN renal
SR leukemia = system: SR leukemia
NCI-H23 lung = system: NCI-H23 lung
CCRF-CEM leukemia = system: CCRF-CEM leukemia
OVCAR-5 ovarian = system: OVCAR-5 ovarian

SMILES: O=C(NCc1ccncc1)C12CC3CC(C1)CC(c1ccc(Cl)cc1)(C3)C2
- GI50 (K-562 leukemia): 4.94 µM
- TGI (K-562 leukemia): 16.3 µM
- GI50 (NCI-H322M lung): 17.5 µM
- TGI (NCI-H322M lung): 31.5 µM
- GI50 (SF-268 CNS): 14.2 µM
- TGI (SF-268 CNS): 27.3 µM
- GI50 (EKVX NSCLC): 13.2 µM
- TGI (EKVX NSCLC): 26 µM
- GI50 (MDA-MB-468 breast): 5.39 µM
- TGI (MDA-MB-468 breast): 15.1 µM
- GI50 (HOP-92 NSCLC): 10.8 µM
- TGI (HOP-92 NSCLC): 23.1 µM
- GI50 (SN12C renal): 14.4 µM
- TGI (SN12C renal): 27.5 µM
- GI50 (OVCAR-4 ovarian): 13.6 µM
- TGI (OVCAR-4 ovarian): 26.5 µM
- GI50 (MOLT-4 leukemia): 4.37 µM
- TGI (MOLT-4 leukemia): 14.7 µM
- GI50 (HL-60(TB) leukemia): 2750 nM
- TGI (HL-60(TB) leukemia): 6.12 µM
- GI50 (PC-3 prostate): 8.88 µM
- TGI (PC-3 prostate): 21.7 µM
- GI50 (T-47D breast): 9.72 µM
- TGI (T-47D breast): 23 µM
- GI50 (U251 glioblastoma): 15.3 µM
- TGI (U251 glioblastoma): 28.8 µM
- GI50 (UACC-257 melanoma): 13.7 µM
- TGI (UACC-257 melanoma): 26.7 µM
- GI50 (UACC-62 melanoma): 14 µM
- TGI (UACC-62 melanoma): 27.1 µM
- GI50 (MALME-3M melanoma): 15.6 µM
- TGI (MALME-3M melanoma): 29.1 µM
- GI50 (RPMI-8226 leukemia): 3.59 µM
- TGI (RPMI-8226 leukemia): 9.73 µM
- GI50 (COLO 205 colon): 13.2 µM
- TGI (COLO 205 colon): 26.1 µM
- GI50 (UO-31 renal): 11.9 µM
- TGI (UO-31 renal): 24.4 µM
- GI50 (TK-10 renal): 14.2 µM
- TGI (TK-10 renal): 27.4 µM
- GI50 (HOP-62 NSCLC): 16.1 µM
- TGI (HOP-62 NSCLC): 29.7 µM
- GI50 (NCI/ADR-RES ovarian): 9.62 µM
- TGI (NCI/ADR-RES ovarian): 21.8 µM
- GI50 (KM12 colon): 13.1 µM
- TGI (KM12 colon): 25.9 µM
- GI50 (A498 renal): 12.7 µM
- TGI (A498 renal): 25.5 µM
- GI50 (LOX IMVI melanoma): 15.9 µM
- TGI (LOX IMVI melanoma): 29.6 µM
- GI50 (SK-MEL-28 melanoma): 17.3 µM
- TGI (SK-MEL-28 melanoma): 31.1 µM
- GI50 (DU-145 prostate): 14.5 µM
- TGI (DU-145 prostate): 27.8 µM
- GI50 (M14 melanoma): 17.8 µM
- TGI (M14 melanoma): 31.7 µM
- GI50 (SK-MEL-5 melanoma): 8.68 µM
- TGI (SK-MEL-5 melanoma): 21.2 µM
- GI50 (CAKI-1 renal): 14.9 µM
- TGI (CAKI-1 renal): 28.3 µM
- GI50 (HCT-116 colon): 9.03 µM
- TGI (HCT-116 colon): 22.7 µM
- GI50 (OVCAR-3 ovarian): 10.8 µM
- TGI (OVCAR-3 ovarian): 23.7 µM
- GI50 (OVCAR-8 ovarian): 13 µM
- TGI (OVCAR-8 ovarian): 25.9 µM
- GI50 (MDA-MB-231 breast): 11.1 µM
- TGI (MDA-MB-231 breast): 23.5 µM
- GI50 (IGROV1 ovarian): 12.1 µM
- TGI (IGROV1 ovarian): 24.6 µM
- GI50 (NCI-H460 NSCLC): 12.7 µM
- TGI (NCI-H460 NSCLC): 25.9 µM
- GI50 (SNB-19 CNS): 16.3 µM
- TGI (SNB-19 CNS): 30 µM
- GI50 (SK-MEL-2 melanoma): 13 µM
- TGI (SK-MEL-2 melanoma): 25.7 µM
- GI50 (NCI-H226 lung): 14.4 µM
- TGI (NCI-H226 lung): 27.6 µM
- GI50 (MDA-MB-435 melanoma): 16.5 µM
- TGI (MDA-MB-435 melanoma): 30.2 µM
- GI50 (HCC-2998 colon): 11.1 µM
- TGI (HCC-2998 colon): 25.2 µM
- GI50 (SK-OV-3 ovarian): 16 µM
- TGI (SK-OV-3 ovarian): 29.6 µM
- GI50 (ACHN renal): 15.1 µM
- TGI (ACHN renal): 28.6 µM
- GI50 (SR leukemia): 5.05 µM
- TGI (SR leukemia): 9.66 µM
- GI50 (NCI-H23 lung): 11.9 µM
- TGI (NCI-H23 lung): 24.6 µM
- GI50 (CCRF-CEM leukemia): 6.92 µM
- TGI (CCRF-CEM leukemia): 17.6 µM
- GI50 (OVCAR-5 ovarian): 18 µM
- TGI (OVCAR-5 ovarian): 31.9 µM

SMILES: Cc1ncsc1-c1ccc(CNC(=O)[C@@H]2C[C@@H](O)CN2C(=O)[C@@H](NC(=O)C2(C#N)CC2)C(C)(C)C)cc1
- GI50 (K-562 leukemia): > 100 µM
- TGI (K-562 leukemia): > 100 µM
- GI50 (NCI-H322M lung): > 100 µM
- TGI (NCI-H322M lung): > 100 µM
- GI50 (SF-268 CNS): 99.7 µM
- TGI (SF-268 CNS): > 100 µM
- GI50 (EKVX NSCLC): > 100 µM
- TGI (EKVX NSCLC): > 100 µM
- GI50 (MDA-MB-468 breast): > 100 µM
- TGI (MDA-MB-468 breast): > 100 µM
- GI50 (HOP-92 NSCLC): > 100 µM
- TGI (HOP-92 NSCLC): > 100 µM
- GI50 (SN12C renal): > 100 µM
- TGI (SN12C renal): > 100 µM
- GI50 (OVCAR-4 ovarian): > 100 µM
- TGI (OVCAR-4 ovarian): > 100 µM
- GI50 (MOLT-4 leukemia): > 100 µM
- TGI (MOLT-4 leukemia): > 100 µM
- GI50 (HL-60(TB) leukemia): > 100000 nM
- TGI (HL-60(TB) leukemia): > 100 µM
- GI50 (PC-3 prostate): > 100 µM
- TGI (PC-3 prostate): > 100 µM
- GI50 (T-47D breast): > 100 µM
- TGI (T-47D breast): > 100 µM
- GI50 (U251 glioblastoma): > 100 µM
- TGI (U251 glioblastoma): > 100 µM
- GI50 (UACC-257 melanoma): > 100 µM
- TGI (UACC-257 melanoma): > 100 µM
- GI50 (UACC-62 melanoma): > 100 µM
- TGI (UACC-62 melanoma): > 100 µM
- GI50 (MALME-3M melanoma): > 100 µM
- TGI (MALME-3M melanoma): > 100 µM
- GI50 (RPMI-8226 leukemia): 46.7 µM
- TGI (RPMI-8226 leukemia): > 90.7 µM
- GI50 (COLO 205 colon): > 100 µM
- TGI (COLO 205 colon): > 100 µM
- GI50 (UO-31 renal): > 100 µM
- TGI (UO-31 renal): > 100 µM
- GI50 (TK-10 renal): > 100 µM
- TGI (TK-10 renal): > 100 µM
- GI50 (HOP-62 NSCLC): > 100 µM
- TGI (HOP-62 NSCLC): > 100 µM
- GI50 (NCI/ADR-RES ovarian): > 100 µM
- TGI (NCI/ADR-RES ovarian): > 100 µM
- GI50 (KM12 colon): > 100 µM
- TGI (KM12 colon): > 100 µM
- GI50 (A498 renal): > 100 µM
- TGI (A498 renal): > 100 µM
- GI50 (LOX IMVI melanoma): > 100 µM
- TGI (LOX IMVI melanoma): > 100 µM
- GI50 (SK-MEL-28 melanoma): > 100 µM
- TGI (SK-MEL-28 melanoma): > 100 µM
- GI50 (DU-145 prostate): > 100 µM
- TGI (DU-145 prostate): > 100 µM
- GI50 (M14 melanoma): > 100 µM
- TGI (M14 melanoma): > 100 µM
- GI50 (SK-MEL-5 melanoma): > 100 µM
- TGI (SK-MEL-5 melanoma): > 100 µM
- GI50 (CAKI-1 renal): > 100 µM
- TGI (CAKI-1 renal): > 100 µM
- GI50 (HCT-116 colon): > 100 µM
- TGI (HCT-116 colon): > 100 µM
- GI50 (OVCAR-3 ovarian): > 100 µM
- TGI (OVCAR-3 ovarian): > 100 µM
- GI50 (OVCAR-8 ovarian): > 100 µM
- TGI (OVCAR-8 ovarian): > 100 µM
- GI50 (MDA-MB-231 breast): > 100 µM
- TGI (MDA-MB-231 breast): > 100 µM
- GI50 (IGROV1 ovarian): > 100 µM
- TGI (IGROV1 ovarian): > 100 µM
- GI50 (NCI-H460 NSCLC): > 100 µM
- TGI (NCI-H460 NSCLC): > 100 µM
- GI50 (SNB-19 CNS): > 100 µM
- TGI (SNB-19 CNS): > 100 µM
- GI50 (SK-MEL-2 melanoma): > 100 µM
- TGI (SK-MEL-2 melanoma): > 100 µM
- GI50 (NCI-H226 lung): > 100 µM
- TGI (NCI-H226 lung): > 100 µM
- GI50 (MDA-MB-435 melanoma): > 100 µM
- TGI (MDA-MB-435 melanoma): > 100 µM
- GI50 (HCC-2998 colon): > 100 µM
- TGI (HCC-2998 colon): > 100 µM
- GI50 (SK-OV-3 ovarian): > 100 µM
- TGI (SK-OV-3 ovarian): > 100 µM
- GI50 (ACHN renal): > 100 µM
- TGI (ACHN renal): > 100 µM
- GI50 (SR leukemia): > 100 µM
- TGI (SR leukemia): > 100 µM
- GI50 (NCI-H23 lung): > 100 µM
- TGI (NCI-H23 lung): > 100 µM
- GI50 (CCRF-CEM leukemia): > 100 µM
- TGI (CCRF-CEM leukemia): > 100 µM
- GI50 (OVCAR-5 ovarian): > 100 µM
- TGI (OVCAR-5 ovarian): > 100 µM
